# Reference: US20080269121A1, “Methods and Compositions Involving A1c Subunit of L-Type Calcium Channels in Smooth Muscle Cells” (The Board of Regents of the University of Texas System, priority 2005, published 2008)
# “Also recorded” adds a separate entry of the source. Where two headings read alike, the source gives them in different places.
# Experiments:
# [1] = tested on: human colonic circular muscle strips; assay: Muscle bath: contractile response of human colonic circular muscle strips; assay type: cell-based
# Experimental: (§1) Muscle bath experiments. Pure circular muscle strips (2 mm×10 mm) are prepared from resected human colon segments. The strips are mounted in 5 ml baths filled with carbonated Krebs solution (in mM: 118 NaCl, 4.7 KCl, 2.5 CaCl2, 1 NaH2PO4, 1-2 MgCl2, 11 D-glucose, and 25 NaHCO3) at 37° C. (Siebenlist et al., 1994; Barnes and Karin, 1997). The muscle strips are equilibrated for 1 h at 1 g tension and then stretched until maximal response is obtained to 10^−4 m ACh. The bathing solution is replaced every 15 min. Contractions are measured by force transducers and analyzed by DATAQ (Akron, Ohio) software.
# The protocol for transfection of sense and antisense oligonucleotides in freshly obtained muscle strips was similar to that in HCCSMC. The circular muscle layer was isolated from the fall thickness human colon, and sliced into 2 mm×10 mm muscle strips. The strips were incubated in RPMI 1640 without serum. The sense and antisense oligonucleotides (10 μM) were added into the medium for 24 h before incubation with 20 ng/mL TNFα for 24 h.
# α1C1b promoter = α1C1b promoter luciferase reporter activity in HCCSMC; assay type: cell-based, human; conditions: for α1C1b promoter reporter (luciferase) activity: substance by itself; for effect on enhancement of α1C1b promoter activity by VIP: with VIP
# Experimental: Transient cell transfections and luciferase activity. FuGENE 6 (Roche, Mannheim, Germany) is used to transfect luciferase-expressing pGL2 constructs in HCCSMC. The cells in passage 4 are seeded into 12-well plates (Costar, Acton, Mass.) and grown to 70% to 80% confluency. Transfections are carried out by incubation of cells in each well with 1.5 μl of FuGENE 6, 0.5 μg of pGL2 construct, and 0.125 μg of pSEAP2 Control Vector (BD Biosciences Clontech, Palo Alto, Calif.) for 24 h as per manufacturer's instructions. The pSEAP2 Control Vector is co-transfected for normalization of data. The transfected cells were treated with stimulus or medium control and harvested after 24 hours. Twenty μl of the supernatant of the cell lysates are taken for the measurement of luciferase activity by a luminometer (Promega, Madison, Wis.). The SEAP activity is measured with a Clontech SEAP detection kit by following the manufacturer's instructions.
# Promoter constructs, 5′-deletions, and site-directed mutagenesis. The promoter constructs of hα1c1b are prepared by PCR amplification of human genomic DNA (Roche, Indianapolis, Ind.) and digested partially with Hind III (Promega, Madison, Wis.) using the FailSafe PCR kit (Epicentre, Madison, Wis.). The PCR product is subcloned into pDrive Cloning Vector with the PCR Cloning^plus kit (Qiagen, Valencia, Calif.) and SURE 2 supercompetent cells (Stratagene, La Jolla, Calif.) and subsequently transferred to the luciferase expression plasmid pGL2-Basic Vector (Promega, Madison, Wis.). The deletion constructs are made using the full length promoter construct as a template in PCR reactions. The same methods and kits are used to subclone the sequenced PCR products into the pDrive and pGL2 vector. The site-directed mutagenesis is carried out using QuikChange® II XL Site-Directed Mutagenesis Kit from Stratagene (La Jolla, Calif.), as per manufacturer's instructions.
# CRE1 and CRE2 = assay: Oligonucleotide agarose conjugate pull-down of CREB; assay type: cell-based, human; conditions: with VIP, FIG. 10
# p65 subunit = assay: Nuclear abundance and binding of NF-κB p65 in HCCSMC; assay type: cell-based, human
# Experimental: Cytoplasmic and nuclear protein, and RNA extraction: Cytoplasmic and nuclear proteins were prepared as described earlier by Shi et al. Briefly, the cells were washed twice with phosphate-buffered saline solution and then with buffer A (in mM: 10 HEPES, 1.5 MgCl2, 10 KCl, 0.5 dithiothreitol, 0.5 phenylmethylsulfrenyl fluoride [PMSF]; 10 ng/mL leupeptin, and 10 ng/mL aprotinin). The cells were resuspended in 25 μL of buffer A containing 0.25% NP-40 and incubated at 4° C. for 10 minutes. After centrifugation at 12,000 g for 10 minutes, the supernatant was collected as cytoplasmic extract. The nuclear pellet was resuspended in 20 μL of buffer C (in mM: 20 HEPES, […], 1.5 MgCl2, 0.2 ethylenediaimetetraacetic acid (EDTA), 0.5 DTT, 0.5 PMSF; 24% glycerol, 10 ng/mL leupeptin, and 10 ng/mL aprotinin) and incubated on ice with frequent vortexing for 15 minutes. The samples were centrifuged at 14,000 g for 10 minutes, and the supernatant (nuclear extract) was transferred to a fresh tube with 5 volumes of buffer D (in mM: 20 HEPES, 0.2 EDTA, 50 KCl, 0.5 DTT, 0.5 PMSF; 20% glycerol, 10 ng/mL leupeptin, and 10 ng/mL aprotinin). The protein concentration was determined by using the Bio-Rad assay kit (Bio-Rad Laboratories, Hercules, Calif.).
# Electrophoretic mobility shift assay. […]
# [2] = tested on: α1C subunit of L-type Ca^2+ channels; assay: Q-PCR of α1C mRNA expression in HCCSMC; assay type: cell-based, human; conditions: for induction of α1C mRNA expression: HCCSMC
# Description: (§2) Primary cultures of HCCSMC: Human tissue was obtained from the descending and sigmoid colons with approval of the University of Texas Medical Branch Institutional Review Board from disease free margins of resected segments from patients undergoing surgery for colon cancer. The circular muscle layer was separated from the taenia coli and lamina propria with a tissue slicer. The circular muscle layer was collected in ice-cold HEPES buffer (in mM: 120 NaCl, 2.6 KH2S04, 4 KCl, 2 CaCl2, 0.6 MgCl2, 25 HEPES, 14 glucose and 2.1% essential amino acid mixture, pH 7.4). Two successive digestions with papain and collagenase, as described previously by Shi and Sarna, were used to disperse smooth muscle cells. The cells were cultured in RPMI 1640 (Gibco/Invitrogen, Carlsbad, Calif.) supplemented with 10% fetal bovine serum in the presence of 100 units/mL of penicillin G, 100 μg/mL of streptomycin sulfate and 0.25 μg/mL of amphoteracin B. The culture medium was changed every three days. Cells in passages 3 to 5 were used in all experiments. All cells were cultured in serum-free medium for at least 15 h prior to experiments to eliminate the possible effects of growth factors. […] The cultures of colonic smooth muscle cells retain their contractile phenotype. Each experiment used cells or muscle strips from at least three different subjects.
# Total RNA was extracted from cells using the Qiagen RNeasy kit (Qiagen, Valencia, Calif.) by following the manufacturer's protocol. The cDNAs were made using the Superscript First-Strand Synthesis System (Invitrogen, Carlsbad, Calif.).
# Quantitive real-time-polymerase chain reaction (Q-PCR). Q-PCR assay is employed to determine gene expression using TaqMan technology on Applied Biosystems 7000 sequence detection system (UTMB Real-time PCR Core Facility). Applied Biosystems Assays-By-Design containing a 20× assay mix of primers and TaqMan MGB probes (FAMTM dye-labeled) are used for a target gene and the endogenous control, human 18s RNA. These assays were designed using primers that span exon-exon junctions so as not to detect genomic DNA. All primer and probe sequences were searched against the Celera data base to confirm specificity. The primer and probe sequences used were as follows: human Cav1.2 channel oα1C intermediate form (Cav1.2b) probe spanning exon 1b and exon 2, […] (SEQ ID NO:4): forward primer, […] (SEQ ID NO:5): reverse primer, […] (SEQ ID NO:6). Human Cav1.2 channel α1C long form (Cav1.2a) probe spanning exon 1a and exon 2: […] (SEQ ID NO:7): forward primer, […] (SEQ ID NO:8): reverse primer. […] (SEQ ID NO:6).
# [3] = tested on: α1C subunit of L-type Ca^2+ channels; assay: α1C protein expression (Western immunoblotting); assay type: cell-based, human; conditions: muscle strip tissue, FIG. 14 top
# Description: as §2
# Western immunoblotting. Each lane is loaded with 10 μg protein and size-separated on a 10% SDS polyacrylamide gel. After blotting, the nitrocellulose membranes are blocked with 10% non-fat dried milk at 4° C. overnight. The blots are incubated with appropriate dilution of the antibody at 4° C. overnight and appropriate dilution of designated secondary antibody at room temperature for 1 h. β-actin is used as internal control.
# [4] = tested on: TNBS-induced inflammation; assay type: in vivo, rat; conditions: for suppression of contractile response, with sub-threshold dose of TNBS: osmotic pump plus TNBS 30 mg/kg, compared with TNBS 130 mg/kg
# Experimental: as §1
# (§3) Vertebrate Animals. Sprague-Dawley rats were used. For tissue harvesting, the rats were anesthetized with 5% isoflurame in 100% oxygen for 5 to 7 minutes followed by i.p. injection of 50 mg/kg ketamine.
# (§4) Osmotic pumps were implanted under anesthesia as discussed above. Lateral surface of left back were shaven and cleaned with betadine. A 2 cm incision was made in the skin and subcutaneous facia and muscle separated. The micro-osmotic pump were implanted intramuscularly and the incision was closed.
# Colonic inflammation was induced by intraluminal injection of 30 mg/kg or 130-mg/kg trinitrobenzene sulfonic acid (TNBS) under anesthesia, as described above.
# [5] = tested on: rat middle colon muscle strips; assay: Osmotic pump administration in rats, contractile response of colon muscle strips; assay type: in vivo; conditions: systemic administration by osmotic pump for 3 days
# Experimental: as §1, §3, §4
# Cav1.2a = conditions: neonatal rat ventricular myocytes; cited from earlier work
molecule,measurement,setting,value
TNFα,contractile response of circular muscle strips to ACh,"[1]; strips incubated 24 h, organ bath",suppresses their contractile response to ACh; also recorded: suppressed the contractile response to ACh; also recorded: suppression of contractility
same,α1C1b promoter reporter (luciferase) activity,α1C1b promoter,reduced luciferase activity; also recorded: suppressed it
same,effect on CREB binding after VIP treatment,CRE1 and CRE2,abrogated; also recorded: reduces the binding after VIP treatment
same,nuclear abundance and binding of p65,p65 subunit,enhanced the nuclear abundance and binding of p65
Oc1ccc(-c2nc(-c3ccncc3)c(-c3ccc(F)cc3)[nH]2)cc1 [SB202190],α1C1b promoter reporter (luciferase) activity,α1C1b promoter,little effect
same,effect on enhancement of α1C1b promoter activity by VIP,α1C1b promoter,somewhat blunt the enhancement
pituitary adenylate cyclase-activating peptide [PACAP],induction of α1C mRNA expression,[2],induced expression
same,effect on TNFα suppression of α1C protein,[3],minimized
same,effect on TNFα suppression of contractile response to ACh,"[1]; muscle strips, treatment before/with TNFα",significantly reduces the suppression
same,effect on suppression of α1C1b promoter activity by TNFα,α1C1b promoter; with TNFα,significantly blocked this reduction
same,effect on suppression of contractility due to TNBS-induced inflammation,"[4]; intact rat model, treatment through osmotic pumps, expected",partially inhibit the suppression of contractility
O=S(=O)(NCCNC/C=C/c1ccc(Br)cc1)c1cccc2cnccc12 [H-89],effect on α1C mRNA on its own,[2]; FIG. 4,no effect on its own
same,effect on VIP enhancement of α1C mRNA,"[2]; FIG. 4, with VIP",partially inhibited the effect of VIP
NC[C@H](O)c1ccc(O)c(O)c1 [norepinephrine],induction of α1C mRNA expression,[2],induced the expression of α1C mRNA
COc1cccc(-c2cc(=O)c3ccccc3o2)c1N [PD98059],α1C1b promoter reporter (luciferase) activity,α1C1b promoter,little effect
same,effect on enhancement of α1C1b promoter activity by VIP,α1C1b promoter,little effect
"(p-chloro-D-Phe^6, Leu^17)-VIP",contractile response of rat colon muscle strips to ACh,[5],suppressed the contractile response
same,"suppression of contractile response, with sub-threshold dose of TNBS",[4]; listed as VIP receptor antagonist,increased the suppression of contractile response
same,"suppression of contractile response, with sub-threshold dose of TNBS",[4]; listed as VIP/PACAP receptor antagonist,enhanced the suppression of contractility
same,"contractile response to ACh, antagonist by itself","[4]; osmotic pump, no TNBS, FIG. 15",suppressed the contractile response
same,diarrhea,"[4]; rat, in vivo",did not develop diarrhea
CC(C)NCC(O)c1ccc(O)c(O)c1 (centres unmarked) [isoproterenol],Cav1.2a mRNA,Cav1.2a,transient increase in Cav1.2a mRNA
same,increase in peak current density,Cav1.2a,about 40%
